Measured values from US7951800B2, “Anti-infective agents” (Abbott Laboratories, Inc., priority 2006, dated 2011).

Legend:
HCV replicon = HCV replicon assays; type: cell-based
Procedure: The 50% inhibitory concentration of an HCV inhibitor (EC50) can also be evaluated using HCV replicon assays as described in Ikeda et al., J. VIROL., 76:2997-3006 (2002), and Blight et al., SCIENCE, 290:1972-1974 (2000), with the following modifications. Replicon cells are plated at 3×10^3 cells per well in 96-well plate in DMEM medium containing 5% fetal calf serum. At day 1, culture medium is removed and replaced with fresh medium containing eight serial 2-fold dilutions of the compound of interest. The final concentration of DMSO in medium is 0.5%. The untreated control culture is treated in an identical manner except no inhibitor is added to the medium. Plates are incubated in a CO2 incubator at 37° C. On Day 4, 100 μl lysis buffer (RTL) (Qiagen) is added to each well after removal of culture medium. RNA is purified according to manufacturer's recommendations (Qiagen RNAeasy) and eluted in 200 μl of water. The HCV RNA level is quantified from a portion (5 μl out of 200 μl) of the purified RNA by real-time RT-PCR method. The primers and probe are derived from specific sequence in the 5′UTR region. RT-PCR reaction is performed at 48° C. for 30 min, followed by 40 cycles set to 95° C., 15 s; 54° C., 30 s; and 72° C., 40 s. […]

[1] = liver concentrations after oral dosing in rats; type: in vivo, Male Sprague-Dawley derived rats; conditions: rat; for concentration at 1 h / concentration at 12 h / concentration at 24 h: male, Sprague-Dawley, liver, 5 mg/kg oral; for EC50 multiple: ratio of post 24-hour liver concentration over EC50 value: EC50 from HCV replicon assays
Procedure: Compounds I, II and III were prepared as a solution in a DMSO: PEG-400 vehicle at a concentration of 5 mg/mL shortly before oral dosing. Male Sprague-Dawley derived rats, weighing 250-350 grams, were obtained from Charles River Laboratories, Inc. (Wilmington, Mass.). The animals were fasted overnight prior to dosing and throughout the study period, but were allowed water ad libitum. Animals were allowed chow ad libitum post 12 hr. Each study used a group of 3 rats. Each rat received a 5 mg/kg (1 mL/kg) oral dose of compound I, II or III administered by gavage. At selected time points after dosing, groups of three rats were euthanized with CO2 and exsanguinated by cardiac puncture. The entire liver tissue from each animal was removed and placed in a labeled plastic container. Groups of rats were sacrificed 1, 12 and 24 hours after drug administration. The liver samples were stored on ice (about 4° C.), and then assayed for the concentration of each compound using high performance liquid chromatographic procedures.

HCV 1b-N replicon cells = assay: passage of HCV 1b-N replicon cells with compounds alone or in combination, absence of neomycin; type: cell-based; conditions: individual compounds or agents at 10 to 20-fold above their respective EC50
Procedure: The effect of compound I on HCV replicon was evaluated alone or in combination with other anti-HCV agents. […] The EC50 values represent the 50% inhibitory concentrations of these compounds/agents in replicon cell assays.

SMILES	higher potency in the inhibition of HCV replication as compared to 1-Benzyl-4-hydroxy-3-[7-(hydroxymethyl)-1,1-dioxido-4H-thieno[2,3-e][1,2,4]thiadiazin-3-yl]quinolin-2(1H)-one (HCV replicon)	EC50 (HCV replicon; Hepatitis C virus, read-out: 50% inhibitory concentration (EC50), HCV replicon assays)	concentration at 1 h [1]	concentration at 12 h [1]	concentration at 24 h [1]	liver concentration of compound I relative to those of compounds II and III ([1]; 24 hours after oral dosing)	EC50 multiple: ratio of post 24-hour liver concentration over EC50 value ([1]; 24 hours after oral dosing)	HCV RNA levels during treatment (HCV 1b-N replicon cells)	elimination of HCV RNA from replicon cells (HCV 1b-N replicon cells)
CS(=O)(=O)NCc1csc2c1S(=O)(=O)N=C(c1c(O)c3ccccc3n(NC3CCC3)c1=O)N2 [compound I, N-[(3-{1-[(cyclobutyl)amino]-4-hydroxy-2-oxo-1,2-dihydro-quinolin-3-yl}-1,1-dioxo-1,4-dihydro-1λ^6-thieno[2,3-e][1,2,4]thiadiazin-7-yl)methyl]methanesulfonamide]	about 100 fold	~2.5 nM	18700 ng/g	19200 ng/g	2420 ng/g	8-20 times	more than 1.800 fold	significantly reduced	none of them eliminated the HCV RNA
CS(=O)(=O)NCc1csc2c1S(=O)(=O)N=C(c1c(O)c3ccccc3n(NCC3CC3)c1=O)N2 [compound II, N-[(3-{1-[(cyclopropylmethyl)amino]-4-hydroxy-2-oxo-1,2-dihydroquinolin-3-yl}-1,1-dioxido-4H-thieno[2,3-e][1,2,4]thiadiazin-7-yl)methyl]methanesulfonamide]			18900 ng/g	7920 ng/g	120 ng/g		significantly lower than that of compound I		
CS(=O)(=O)Nc1ccc2c(c1)S(=O)(=O)N=C(c1c(O)c3ccccc3n(NC3CCC3)c1=O)N2 [compound III, N-{3-[1-(cyclobutylamino)-4-hydroxy-2-oxo-1,2-dihydroquinolin-3-yl]-1,1-dioxido-4H-1,2,4-benzothiadiazin-7-yl}methanesulfonamide]			8790 ng/g	4140 ng/g	280 ng/g		significantly lower than that of compound I		
CCC[C@H](NC(=O)C1[C@H]2CCC[C@H]2CN1C(=O)[C@@H](NC(=O)[C@@H](NC(=O)c1cnccn1)C1CCCCC1)C(C)(C)C)C(=O)C(=O)NC1CC1 (stereo partly shown) [compound VX-950]								significantly reduced	none of them eliminated the HCV RNA
